Values after ≈ are worked out from the molar mass of the structure shown.
details: buffer; pH 7.4; 200.0 µM

Compound | solubility kinetic [µg/mL]
CCCCNc1c([N+](=O)[O-])ncn1C | > 29.7
O=C(CCN1CCN(c2ccccc2)CC1)Nc1ccccc1 | 40.9 (≈ 132 µM)
C=CCn1c(O)c(/C(C)=N/N2CCCCCC2)c(=O)[nH]c1=O | > 46
O=C(CCCc1ccccc1)NCCc1ccccc1 | 29.3 (≈ 110 µM)
COc1ccc(C)cc1Nc1nc(C)nc2sc(C)cc12 | 2.3 (≈ 7.68 µM)
COC(=O)c1ccccc1NC(=S)NC(C)=O | > 37.8
CN(CC(=O)Nc1cccc(F)c1)CC(=O)N(C)c1c(N)n(Cc2ccccc2)c(=O)[nH]c1=O | > 70.3
NC(=O)c1ccc(NC(=O)c2cccc3c2OCCCO3)cc1 | 14.5 (≈ 46.4 µM)
COc1c(C)cccc1C(=O)NCCCNC(=O)c1ccc(C)nc1 | 46.8 (≈ 137 µM)
C/C(=N\NC(=O)c1cccnc1)c1cccc([N+](=O)[O-])c1 | > 42.6
O=C(NCc1ccco1)c1ccccc1 | > 30.2
Cc1onc(-c2ccccc2)c1C(=O)N=C(N)c1ccc(Cl)cc1 | 1.1 (≈ 3.24 µM)
O=C(CNC(=O)c1cccc(F)c1)N/N=C/c1cccnc1 | > 45
CCCCNC(=O)COC(=O)c1ccc(N(C)C)cc1 | > 41.8
CN(C(=O)c1ccc(N2CCCCC2)c([N+](=O)[O-])c1)C1CCS(=O)(=O)C1 (stereo not given) | > 57.2
O=C(/C=C/c1cccc(F)c1)N1CCN(c2ccccn2)CC1 | 39.4 (≈ 127 µM)
N#Cc1ccc(OC(=O)Cc2ccsc2)cc1 | 35.5 (≈ 146 µM)
COc1ccc(CN(C)CC(=O)NC(C)c2ccccc2)c(OC)c1 (stereo not given) | 51.2 (≈ 150 µM)
CCC1OC(c2ccc([N+](=O)[O-])cc2)=Nc2ccccc21 (stereo not given) | 3.1 (≈ 11 µM)
Cc1cc(NC(=O)COC(=O)C2CC2)ccc1Br | > 46.8

Compound | solubility kinetic [µg/mL]
C=CCOc1ccc(CNCC2CCCO2)cc1.Cl (stereo not given) | > 42.6
Cc1ccc(NCc2nc3ccccc3n2C)cc1C | 22.1 (≈ 83.3 µM)
CCC(=O)c1ccc(OCC(=O)NC2CCCC2)cc1 | > 41.3
CCCN1C2CCCC1CC(NC(=S)Nc1ccc(OC)cc1)C2 (stereo not given) | > 52.1
O=C(CNC(=O)c1ccco1)NNC(=O)c1ccc(Br)cc1 | > 54.9
CN(C)C(=O)c1cc(C(=O)c2ccc(F)cc2C(F)(F)F)c[nH]1 | 12.6 (≈ 38.4 µM)
c1ccc(-c2noc(CN3CCc4sccc4C3)n2)cc1 | 13.4 (≈ 45.1 µM)
COc1ccc2c(c1)CC/C(=C/c1ccccn1)C2=O | 38.5 (≈ 145 µM)
CN(Cc1c(F)cccc1Cl)C(=O)c1cnc2ccccc2n1 | 38.3 (≈ 116 µM)
O=C(Nc1ccc(S(=O)(=O)N2CCCCC2)cc1)c1ccc(Cl)nc1 | 7.6 (≈ 20 µM)
Cc1ccc(NC(=O)Nc2cccnc2)cc1Cl | 23.3 (≈ 89 µM)
S=C(NCc1ccco1)Nc1ccc(Oc2ccc(Cl)cc2)cc1 | < 0.4
O=C(COC(=O)/C=C/c1ccco1)Nc1ccccc1 | 13.5 (≈ 49.8 µM)
COCCNC(=O)C(=O)NNC(=O)CCc1ccccc1 | > 44
Cn1c(N)c(N2CCCCC2)c(=O)n(CC(=O)Nc2cccc(C#N)c2)c1=O | > 57.4
CCN(CC)c1ccc(NC(=O)c2ccc(S(=O)(=O)N3CCOCC3)cc2)cc1 | 4.7 (≈ 11.3 µM)
Cc1ccc(OCCNC(=O)c2cccc(C)c2)cc1 | 29 (≈ 108 µM)
O=C(O)CCN1C(=O)C2C3c4ccccc4C(c4ccccc43)C2C1=O (stereo not given) | > 52.1
N#CN(Cc1ccccc1)Cc1ccccc1 | 18.6 (≈ 83.7 µM)
CC1CCN(C(=O)COC(=O)/C=C/c2ccc([N+](=O)[O-])cc2)CC1 | 5.7 (≈ 17.2 µM)

Compound | solubility kinetic [µg/mL]
CCC(Cc1ccccc1)NC(=O)/C=C/c1ccco1 (stereo not given) | 23.7 (≈ 88 µM)
O=C(COC(=O)/C=C/c1ccccc1[N+](=O)[O-])NC(=O)NC1CCCC1 | 7.7 (≈ 21.3 µM)
Cc1cc(C)c(C(=O)Nc2ccc(C)c(C)c2)c(CC(C)(C)C(=O)O)c1 | > 53
CCC(=O)N(Cc1cc(=O)[nH]c2ccccc12)c1ccccc1 | > 46
NC(=Nc1ccccc1)Nc1ccccc1 | 29.5 (≈ 140 µM)
COc1ccc(C(=O)Nc2ccc(CN3CCCCC3)cc2)cc1 | > 48.7
Cc1onc(-c2ccccc2Cl)c1C(=O)N1CCN(C=O)CC1 | > 50.1
C=C(C)COc1ccc(-c2ncncc2-c2ccc(Cl)cc2)c(O)c1 | < 0.4
CC(C)N(Cc1ccccc1)C(=S)Nc1cccnc1 | > 42.8
CC1CCN(S(=O)(=O)c2ccccc2)CC1 | 25.8 (≈ 108 µM)
C=CCNC(=O)CN(Cc1ccccc1)S(=O)(=O)c1ccccc1 | > 51.7
COC(=O)C1(C(=O)O)Cc2cc([N+](=O)[O-])ccc2N2CCCC21 (stereo not given) | 47.9 (≈ 150 µM)
COCC(=O)NC1CC(C)(C)Cc2c1cnn2-c1ccc(F)cc1 (stereo not given) | > 49.7
Nc1nc(NCC(=O)O)nc(NCc2ccccc2)c1[N+](=O)[O-] | > 47.7
NC(=O)CSc1nc2ccc([N+](=O)[O-])cc2[nH]1 | > 37.8
CCOc1cc(-c2nc3n(c(=O)c2C#N)CCS3)ccc1O | 5.7 (≈ 18.1 µM)
Cn1nccc1C(=O)N1CCN(c2ccccc2Cl)CC1 | > 45.7
CCCCC(CCC(=O)Nc1cccc([N+](=O)[O-])c1)C(=O)O (stereo not given) | 43.7 (≈ 142 µM)
CCn1ccnc1CN1CCCC(C(=O)c2ccc(OC)cc2OC)C1 (stereo not given) | 48.7 (≈ 136 µM)
Cc1cc(C(=O)OCC(=O)N2CCC(C)CC2)c2ccccc2n1 | > 49

Reference: PubChem BioAssay AID1996
